According to US9018451B2, “Optimized expression of glyphosate resistance encoding nucleic acid molecules in plant cells” (M S Technologies, LLC, priority 2010, dated 2015):

Legend:
Experiment in all cases: Field trial, in planta tolerance to glyphosate, injury assessed seven days after application
Type in all cases: in vivo, Glycine max
[1] = test system: Soybean event 8291-4524 expressing 2mEPSPS (construct pDAB8291); conditions: 7 days after application
Method: (§1) Soybean events containing the 2mEPSPv2 expression cassette construct from pDAB8291 are tolerant to glyphosate. Field trials were performed during the 2009 and 2010 growing seasons. The plots were planted with the transgenic soybean seed which had been produced from the transformation with pDAB8291 and non-transgenic soybean (cv Maverick) which was used as a control. Field grown soybean plants from the T2 and T4 generation were sprayed with high rates of glyphosate. Glyphosate (DURANGO® herbicide Dow AgroSciences, Indianapolis, Ind.) applications were made at the V3 or V5 stage of plant development at a rate of 2,240 g ae/ha. Seven days after glyphosate application, the plants were assessed for injury.

[2] = test system: Soybean event 8291-4536 expressing 2mEPSPS (construct pDAB8291); conditions: 7 days after application
Method: as §1

[3] = test system: non-transgenic soybean (cv Maverick); conditions: Maverick non-transgenic control, 7 days after application
Method: as §1

[4] = test system: soybean plants transformed with pDAB8291; conditions: T2 and T4 field grown plants, 2,240 g ae/ha at V3 or V5, seven days after application
Method: as §1

O=C(O)CNCP(=O)(O)O [Glyphosate, N-phosphonomethylglycine]
Adjusted Mean Injury 7daa(%) ([1]; event 8291-4524, T2 generation, application at V3, 2,240 g ae/ha glyphosate): 10%
Adjusted Mean Injury 7daa(%) ([1]; event 8291-4524, T4 generation, application at V5, 2,240 g ae/ha glyphosate): 0.5%
Adjusted Mean Injury 7daa(%) ([2]; event 8291-4536, T2 generation, application at V3, 2,240 g ae/ha glyphosate): 3.5%
Adjusted Mean Injury 7daa(%) ([2]; event 8291-4536, T4 generation, application at V5, 2,240 g ae/ha glyphosate): 0.75%
Adjusted Mean Injury 7daa(%) ([3]; T2 trial, application at V3, 2,240 g ae/ha glyphosate): 100%
Adjusted Mean Injury 7daa(%) ([3]; T4 trial, application at V5, 2,240 g ae/ha glyphosate): 100%
injury (damage) to plants as compared to Maverick controls [4]: Minimal damage
